Key:
Assay in all cases: radiometric filter-binding kinase assay
[1] = biological target: MAP2K6 (human) (UniProt P52564)
[2] = biological target: NEK7 (human) (UniProt Q8TDX7); conditions: compound 50.0 µM
[3] = biological target: NUAK1 (human) (UniProt O60285)
[4] = biological target: AURKC (human) (UniProt Q9UQB9); conditions: compound 50.0 µM
[5] = biological target: TESK1 (human) (UniProt Q15569)
[6] = biological target: STK33 (human) (UniProt Q9BYT3)
[7] = biological target: TLK1 (human) (UniProt Q9UKI8)
[8] = biological target: TTBK2 (human) (UniProt Q6IQ55)
[9] = biological target: CDK9 CCNT1 (human) (UniProt P50750+O60563)
[10] = tested on: OXSR1 (human), O95747 [T185E]
[11] = biological target: ZAP70 (human) (UniProt P43403)
[12] = biological target: EIF2AK3 (human) (UniProt Q9NZJ5)
[13] = biological target: PRKAA1 PRKAB2 PRKAG1 (human) (UniProt O43741+Q13131+P54619)
[14] = biological target: SIK2 (human) (UniProt Q9H0K1)
[15] = biological target: MAPK7 (human) (UniProt Q13164)
[16] = biological target: WNK1 (human) (UniProt Q9H4A3)
WNK1 (human), sequence (Q9H4A3 whole entry, looked up): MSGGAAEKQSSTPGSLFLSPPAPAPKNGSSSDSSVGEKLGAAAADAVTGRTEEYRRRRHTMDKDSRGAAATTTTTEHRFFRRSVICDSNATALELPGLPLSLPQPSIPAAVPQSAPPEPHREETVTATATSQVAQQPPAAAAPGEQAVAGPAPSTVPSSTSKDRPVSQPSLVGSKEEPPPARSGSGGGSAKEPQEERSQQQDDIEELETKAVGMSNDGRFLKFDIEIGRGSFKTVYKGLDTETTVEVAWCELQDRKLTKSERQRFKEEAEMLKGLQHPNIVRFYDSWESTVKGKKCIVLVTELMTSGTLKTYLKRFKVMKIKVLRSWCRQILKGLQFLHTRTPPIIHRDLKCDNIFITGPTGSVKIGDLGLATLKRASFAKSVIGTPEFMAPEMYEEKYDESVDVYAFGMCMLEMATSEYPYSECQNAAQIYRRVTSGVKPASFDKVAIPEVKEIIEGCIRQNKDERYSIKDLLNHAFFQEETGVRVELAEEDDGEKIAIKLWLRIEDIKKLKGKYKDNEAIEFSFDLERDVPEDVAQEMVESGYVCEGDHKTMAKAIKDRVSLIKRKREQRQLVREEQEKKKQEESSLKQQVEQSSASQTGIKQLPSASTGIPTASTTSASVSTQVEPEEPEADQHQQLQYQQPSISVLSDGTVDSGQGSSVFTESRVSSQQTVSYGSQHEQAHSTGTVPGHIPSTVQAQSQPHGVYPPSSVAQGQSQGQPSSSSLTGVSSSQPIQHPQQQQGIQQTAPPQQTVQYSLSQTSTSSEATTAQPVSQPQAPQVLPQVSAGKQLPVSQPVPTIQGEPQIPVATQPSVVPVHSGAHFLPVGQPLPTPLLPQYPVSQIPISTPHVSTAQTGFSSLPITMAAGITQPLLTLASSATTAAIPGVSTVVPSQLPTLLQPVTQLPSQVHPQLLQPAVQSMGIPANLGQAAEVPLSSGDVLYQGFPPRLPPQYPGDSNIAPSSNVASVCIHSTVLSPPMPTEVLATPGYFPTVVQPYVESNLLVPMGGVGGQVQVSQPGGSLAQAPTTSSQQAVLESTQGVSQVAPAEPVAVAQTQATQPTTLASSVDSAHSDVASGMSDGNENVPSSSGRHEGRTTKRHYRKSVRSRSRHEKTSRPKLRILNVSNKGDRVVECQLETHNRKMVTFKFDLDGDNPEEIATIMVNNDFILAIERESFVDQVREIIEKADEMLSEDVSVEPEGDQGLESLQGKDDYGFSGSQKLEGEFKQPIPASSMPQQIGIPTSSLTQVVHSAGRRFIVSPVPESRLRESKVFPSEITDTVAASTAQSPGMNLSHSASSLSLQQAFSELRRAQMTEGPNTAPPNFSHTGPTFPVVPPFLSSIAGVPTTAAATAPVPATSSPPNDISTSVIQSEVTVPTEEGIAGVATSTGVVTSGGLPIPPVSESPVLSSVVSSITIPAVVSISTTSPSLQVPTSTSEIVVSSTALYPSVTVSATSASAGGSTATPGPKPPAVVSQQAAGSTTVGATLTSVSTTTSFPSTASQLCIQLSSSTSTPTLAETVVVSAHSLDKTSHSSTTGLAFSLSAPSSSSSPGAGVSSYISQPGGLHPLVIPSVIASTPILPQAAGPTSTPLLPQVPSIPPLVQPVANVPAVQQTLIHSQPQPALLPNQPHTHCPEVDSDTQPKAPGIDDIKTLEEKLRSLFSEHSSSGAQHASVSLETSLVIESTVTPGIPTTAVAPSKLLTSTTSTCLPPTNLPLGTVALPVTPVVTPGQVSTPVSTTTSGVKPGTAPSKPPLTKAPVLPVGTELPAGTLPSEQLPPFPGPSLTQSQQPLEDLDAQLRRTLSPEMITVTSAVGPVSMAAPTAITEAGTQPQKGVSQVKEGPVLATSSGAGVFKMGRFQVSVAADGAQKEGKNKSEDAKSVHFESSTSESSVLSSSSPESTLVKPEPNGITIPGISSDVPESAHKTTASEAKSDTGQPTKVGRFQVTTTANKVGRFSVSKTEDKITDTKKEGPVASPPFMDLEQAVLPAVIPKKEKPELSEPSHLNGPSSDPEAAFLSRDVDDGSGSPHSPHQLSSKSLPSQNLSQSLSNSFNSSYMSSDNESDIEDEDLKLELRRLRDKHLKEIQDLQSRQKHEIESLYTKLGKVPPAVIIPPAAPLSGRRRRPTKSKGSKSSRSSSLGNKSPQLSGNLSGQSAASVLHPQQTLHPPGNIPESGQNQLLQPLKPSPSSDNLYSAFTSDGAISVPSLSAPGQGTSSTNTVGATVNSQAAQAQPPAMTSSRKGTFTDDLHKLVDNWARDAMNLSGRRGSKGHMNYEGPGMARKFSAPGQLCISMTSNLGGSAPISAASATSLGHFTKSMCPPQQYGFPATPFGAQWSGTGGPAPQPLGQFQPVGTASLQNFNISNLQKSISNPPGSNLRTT

[17] = biological target: TEK (human) (UniProt Q02763)
[18] = biological target: DDR2 (human) (UniProt Q16832)
[19] = biological target: CSNK1G2 (human) (UniProt P78368)
[20] = biological target: MAP4K3 (human) (UniProt Q8IVH8)
[21] = biological target: STK24 (human) (UniProt Q9Y6E0)
[22] = tested on: TGFBR1 (human), P36897 [T204D]
TGFBR1 (human), P36897 [T204D], sequence (P36897 whole entry T204D, looked up): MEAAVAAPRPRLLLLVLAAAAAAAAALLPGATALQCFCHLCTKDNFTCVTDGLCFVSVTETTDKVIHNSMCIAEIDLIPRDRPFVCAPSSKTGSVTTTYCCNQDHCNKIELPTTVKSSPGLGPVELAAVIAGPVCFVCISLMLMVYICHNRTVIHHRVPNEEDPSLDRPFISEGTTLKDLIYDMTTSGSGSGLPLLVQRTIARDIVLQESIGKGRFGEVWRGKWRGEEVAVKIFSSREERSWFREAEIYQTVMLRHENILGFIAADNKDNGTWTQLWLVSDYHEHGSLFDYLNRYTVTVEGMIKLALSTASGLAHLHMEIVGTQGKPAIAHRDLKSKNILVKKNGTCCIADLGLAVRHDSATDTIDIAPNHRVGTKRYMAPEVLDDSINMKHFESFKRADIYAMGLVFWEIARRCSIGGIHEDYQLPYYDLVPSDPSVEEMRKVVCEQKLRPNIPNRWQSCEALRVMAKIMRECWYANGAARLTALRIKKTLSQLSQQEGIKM

[23] = biological target: ABL1 (human) (UniProt P00519)
[24] = biological target: PDGFRA (human) (UniProt P16234)
PDGFRA (human), sequence (P16234 whole entry, looked up): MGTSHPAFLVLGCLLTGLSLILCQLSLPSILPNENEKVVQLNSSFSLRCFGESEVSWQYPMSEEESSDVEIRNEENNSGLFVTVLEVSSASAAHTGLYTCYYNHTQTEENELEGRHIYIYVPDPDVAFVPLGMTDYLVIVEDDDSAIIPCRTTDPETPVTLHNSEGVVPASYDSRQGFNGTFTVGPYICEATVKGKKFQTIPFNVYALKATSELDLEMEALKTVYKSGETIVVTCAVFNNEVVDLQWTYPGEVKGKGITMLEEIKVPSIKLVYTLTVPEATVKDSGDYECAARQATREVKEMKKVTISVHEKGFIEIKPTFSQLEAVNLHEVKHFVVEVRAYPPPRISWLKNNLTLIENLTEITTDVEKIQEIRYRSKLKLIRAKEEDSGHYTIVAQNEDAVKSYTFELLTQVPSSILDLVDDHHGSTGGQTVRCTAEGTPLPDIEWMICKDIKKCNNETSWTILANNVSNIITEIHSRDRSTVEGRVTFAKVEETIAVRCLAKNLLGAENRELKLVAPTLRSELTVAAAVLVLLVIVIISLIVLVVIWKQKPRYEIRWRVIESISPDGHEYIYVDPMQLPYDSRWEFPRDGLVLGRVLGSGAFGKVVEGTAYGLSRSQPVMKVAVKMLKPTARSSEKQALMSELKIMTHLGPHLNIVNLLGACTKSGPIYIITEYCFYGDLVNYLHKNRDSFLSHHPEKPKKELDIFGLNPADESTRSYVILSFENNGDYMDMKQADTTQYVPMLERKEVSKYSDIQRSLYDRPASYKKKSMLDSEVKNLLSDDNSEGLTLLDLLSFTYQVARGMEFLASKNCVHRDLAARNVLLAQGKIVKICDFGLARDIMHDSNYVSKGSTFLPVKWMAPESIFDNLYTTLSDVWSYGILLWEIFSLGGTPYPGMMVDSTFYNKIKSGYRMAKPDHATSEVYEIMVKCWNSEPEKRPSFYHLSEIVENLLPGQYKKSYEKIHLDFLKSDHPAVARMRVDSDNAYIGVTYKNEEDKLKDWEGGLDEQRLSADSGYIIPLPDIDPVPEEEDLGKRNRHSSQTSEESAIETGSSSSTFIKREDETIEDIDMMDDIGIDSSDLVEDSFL

[25] = biological target: SIK3 (human) (UniProt Q9Y2K2)
[26] = biological target: TTBK1 (human) (UniProt Q5TCY1)
[27] = biological target: PTK6 (human) (UniProt Q13882)
[28] = biological target: IRAK1 (human) (UniProt P51617)
[29] = biological target: ULK2 (human) (UniProt Q8IYT8)
[30] = biological target: MAP4K5 (human) (UniProt Q9Y4K4)
[31] = biological target: TSSK1B (human) (UniProt Q9BXA7)
[32] = biological target: STK16 (human) (UniProt O75716)
[33] = biological target: PRKCG (human) (UniProt P05129)
[34] = biological target: ULK1 (human) (UniProt O75385)

MAP2K6 (human), sequence (P52564 whole entry, looked up): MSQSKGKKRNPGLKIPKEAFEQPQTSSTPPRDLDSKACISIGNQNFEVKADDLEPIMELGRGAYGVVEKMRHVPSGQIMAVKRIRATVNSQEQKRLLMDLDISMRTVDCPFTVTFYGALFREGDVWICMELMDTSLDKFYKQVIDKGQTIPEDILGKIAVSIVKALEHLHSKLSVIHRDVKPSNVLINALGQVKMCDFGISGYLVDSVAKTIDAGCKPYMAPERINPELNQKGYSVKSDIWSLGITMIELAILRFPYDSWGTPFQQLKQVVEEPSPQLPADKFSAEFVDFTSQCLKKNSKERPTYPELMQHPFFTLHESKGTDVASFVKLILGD
NUAK1 (human), sequence (O60285 whole entry, looked up): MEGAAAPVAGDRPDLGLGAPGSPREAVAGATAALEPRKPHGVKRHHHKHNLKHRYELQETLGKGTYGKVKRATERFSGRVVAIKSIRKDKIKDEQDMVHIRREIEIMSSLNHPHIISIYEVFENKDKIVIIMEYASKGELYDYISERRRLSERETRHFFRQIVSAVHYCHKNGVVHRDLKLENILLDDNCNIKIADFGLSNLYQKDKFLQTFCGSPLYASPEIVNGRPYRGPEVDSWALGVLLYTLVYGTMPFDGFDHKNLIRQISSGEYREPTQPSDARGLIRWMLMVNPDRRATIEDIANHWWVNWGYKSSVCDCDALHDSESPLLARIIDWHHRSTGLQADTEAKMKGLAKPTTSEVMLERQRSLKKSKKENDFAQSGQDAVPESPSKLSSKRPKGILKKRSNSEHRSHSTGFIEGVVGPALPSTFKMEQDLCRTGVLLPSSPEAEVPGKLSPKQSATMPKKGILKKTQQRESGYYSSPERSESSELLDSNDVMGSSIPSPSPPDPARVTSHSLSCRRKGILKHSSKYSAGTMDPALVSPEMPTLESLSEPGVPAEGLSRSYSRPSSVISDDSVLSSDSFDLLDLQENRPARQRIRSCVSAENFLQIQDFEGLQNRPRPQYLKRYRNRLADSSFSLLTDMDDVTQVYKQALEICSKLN

Compound: N#Cc1c(O)c2c(-c3ccc(-c4ccccc4O)cc3)csc2[nH]c1=O
- residual activity ([1]; compound 10.0 µM): 85%
- residual activity ([1]; compound 100.0 µM): 84%
- residual activity [2]: 102%
- residual activity ([3]; compound 10.0 µM): 61%
- residual activity ([3]; compound 100.0 µM): 10%
- residual activity [4]: 30%

Compound: CCn1c(-c2nonc2N)nc2cncc(CNC3CCNCC3)c21
- residual activity ([5]; compound 0.1 µM): 103%
- residual activity ([5]; compound 1.0 µM): 114%
- residual activity ([5]; compound 10.0 µM): 104%
- residual activity ([6]; compound 0.1 µM): 104%
- residual activity ([6]; compound 1.0 µM): 106%
- residual activity ([6]; compound 10.0 µM): 74%
- residual activity ([7]; compound 0.1 µM): 92%
- residual activity ([7]; compound 1.0 µM): 92%
- residual activity ([7]; compound 10.0 µM): 88%
- residual activity ([8]; compound 0.1 µM): 91%
- residual activity ([8]; compound 1.0 µM): 95%
- residual activity ([8]; compound 10.0 µM): 101%
- residual activity ([9]; compound 0.1 µM): 103%
- residual activity ([9]; compound 1.0 µM): 115%
- residual activity ([9]; compound 10.0 µM): 103%
- residual activity ([10]; compound 0.1 µM): 107%
- residual activity ([10]; compound 1.0 µM): 102%
- residual activity ([10]; compound 10.0 µM): 97%
- residual activity ([11]; compound 0.1 µM): 83%
- residual activity ([11]; compound 1.0 µM): 84%
- residual activity ([11]; compound 10.0 µM): 84%
- residual activity ([12]; compound 0.1 µM): 93%
- residual activity ([12]; compound 1.0 µM): 105%
- residual activity ([12]; compound 10.0 µM): 94%
- residual activity ([13]; compound 0.1 µM): 115%
- residual activity ([13]; compound 1.0 µM): 78%
- residual activity ([13]; compound 10.0 µM): 34%
- residual activity ([14]; compound 0.1 µM): 97%
- residual activity ([14]; compound 1.0 µM): 93%
- residual activity ([14]; compound 10.0 µM): 95%
- residual activity ([15]; compound 0.1 µM): 96%
- residual activity ([15]; compound 1.0 µM): 83%
- residual activity ([15]; compound 10.0 µM): 64%
- residual activity ([16]; compound 0.1 µM): 106%
- residual activity ([16]; compound 1.0 µM): 102%
- residual activity ([16]; compound 10.0 µM): 100%
- residual activity ([17]; compound 1.0 µM): 116%
- residual activity ([17]; compound 10.0 µM): 111%
- residual activity ([18]; compound 0.1 µM): 108%
- residual activity ([18]; compound 1.0 µM): 97%
- residual activity ([18]; compound 10.0 µM): 104%
- residual activity ([19]; compound 0.1 µM): 101%
- residual activity ([19]; compound 1.0 µM): 92%
- residual activity ([19]; compound 10.0 µM): 92%
- residual activity ([1]; compound 0.1 µM): 89%
- residual activity ([1]; compound 1.0 µM): 90%
- residual activity ([1]; compound 10.0 µM): 96%
- residual activity ([20]; compound 0.1 µM): 99%
- residual activity ([20]; compound 10.0 µM): 66%
- residual activity ([21]; compound 0.1 µM): 86%
- residual activity ([21]; compound 1.0 µM): 91%
- residual activity ([21]; compound 10.0 µM): 73%
- residual activity ([22]; compound 0.1 µM): 85%
- residual activity ([22]; compound 1.0 µM): 90%
- residual activity ([22]; compound 10.0 µM): 92%
- residual activity ([23]; compound 0.1 µM): 102%
- residual activity ([23]; compound 1.0 µM): 109%
- residual activity ([23]; compound 10.0 µM): 96%
- residual activity ([24]; compound 0.1 µM): 120%
- residual activity ([24]; compound 1.0 µM): 101%
- residual activity ([24]; compound 10.0 µM): 99%
- residual activity ([25]; compound 0.1 µM): 89%
- residual activity ([25]; compound 1.0 µM): 94%
- residual activity ([25]; compound 10.0 µM): 89%
- residual activity ([26]; compound 0.1 µM): 104%
- residual activity ([26]; compound 1.0 µM): 100%
- residual activity ([26]; compound 10.0 µM): 91%
- residual activity ([27]; compound 0.1 µM): 91%
- residual activity ([27]; compound 10.0 µM): 91%
- residual activity ([28]; compound 0.1 µM): 99%
- residual activity ([28]; compound 1.0 µM): 103%
- residual activity ([28]; compound 10.0 µM): 75%
- residual activity ([29]; compound 0.1 µM): 93%
- residual activity ([29]; compound 1.0 µM): 98%
- residual activity ([29]; compound 10.0 µM): 73%
- residual activity ([3]; compound 0.1 µM): 101%
- residual activity ([3]; compound 1.0 µM): 91%
- residual activity ([3]; compound 10.0 µM): 59%
- residual activity ([30]; compound 0.1 µM): 107%
- residual activity ([30]; compound 1.0 µM): 103%
- residual activity ([30]; compound 10.0 µM): 84%
- residual activity ([31]; compound 0.1 µM): 88%
- residual activity ([31]; compound 10.0 µM): 42%
- residual activity ([32]; compound 1.0 µM): 103%
- residual activity ([32]; compound 10.0 µM): 83%
- residual activity ([33]; compound 0.1 µM): 96%
- residual activity ([33]; compound 1.0 µM): 80%
- residual activity ([33]; compound 10.0 µM): 46%
- residual activity ([34]; compound 0.1 µM): 83%
- residual activity ([34]; compound 1.0 µM): 74%
- residual activity ([34]; compound 10.0 µM): 43%
